Reference: PubChem BioAssay (NCI)
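Cells were grown in 96-well plates and exposed to each compound for 48 hours at five concentrations; endpoints were interpolated linearly between bracketing concentrations, or set to the highest concentration if not reached. TGI denotes the concentration required for complete inhibition of growth.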

How the values were obtained:
Assay in all cases: inhibition of tumour cell growth, NCI panel, 48 h
786-0 renal = system: 786-0 renal
A549 NSCLC = system: A549 NSCLC
ACHN renal = system: ACHN renal
BT-549 breast = system: BT-549 breast
CAKI-1 renal = system: CAKI-1 renal
CCRF-CEM leukemia = system: CCRF-CEM leukemia
COLO 205 colon = system: COLO 205 colon
DU-145 prostate = system: DU-145 prostate
EKVX NSCLC = system: EKVX NSCLC
HCT-116 colon = system: HCT-116 colon
HCT-15 colon = system: HCT-15 colon
HL-60(TB) leukemia = system: HL-60(TB) leukemia
HOP-62 NSCLC = system: HOP-62 NSCLC
HOP-92 NSCLC = system: HOP-92 NSCLC
HS 578T breast = system: HS 578T breast
HT29 colon = system: HT29 colon
IGROV1 ovarian = system: IGROV1 ovarian
K-562 leukemia = system: K-562 leukemia
KM12 colon = system: KM12 colon
LOX IMVI melanoma = system: LOX IMVI melanoma
M14 melanoma = system: M14 melanoma
MALME-3M melanoma = system: MALME-3M melanoma
MCF7 breast = system: MCF7 breast
MDA-MB-231 breast = system: MDA-MB-231 breast
MDA-MB-435 = system: MDA-MB-435
MDA-N = system: MDA-N
MOLT-4 leukemia = system: MOLT-4 leukemia
NCI-H226 lung = system: NCI-H226 lung
NCI-H23 lung = system: NCI-H23 lung
NCI-H460 lung = system: NCI-H460 lung
NCI-H522 lung = system: NCI-H522 lung
NCI/ADR-RES ovarian = system: NCI/ADR-RES ovarian
OVCAR-3 ovarian = system: OVCAR-3 ovarian
OVCAR-4 ovarian = system: OVCAR-4 ovarian
OVCAR-5 ovarian = system: OVCAR-5 ovarian
OVCAR-8 ovarian = system: OVCAR-8 ovarian
PC-3 prostate = system: PC-3 prostate
RPMI-8226 leukemia = system: RPMI-8226 leukemia
RXF 393 renal = system: RXF 393 renal
SF-268 CNS = system: SF-268 CNS
SF-295 CNS = system: SF-295 CNS
SF-539 CNS = system: SF-539 CNS
SK-MEL-5 melanoma = system: SK-MEL-5 melanoma
SK-OV-3 ovarian = system: SK-OV-3 ovarian
SN12C renal = system: SN12C renal
SNB-19 CNS = system: SNB-19 CNS
SR leukemia = system: SR leukemia
SW-620 colon = system: SW-620 colon
T-47D breast = system: T-47D breast
TK-10 renal = system: TK-10 renal
U251 CNS = system: U251 CNS
UACC-257 melanoma = system: UACC-257 melanoma
UACC-62 melanoma = system: UACC-62 melanoma
UO-31 renal = system: UO-31 renal
HCC-2998 colon = system: HCC-2998 colon
SK-MEL-2 melanoma = system: SK-MEL-2 melanoma
SK-MEL-28 melanoma = system: SK-MEL-28 melanoma
SNB-75 CNS = system: SNB-75 CNS

O=c1[nH]c2cc3cccnc3c(Cl)c2nc1CBr was tested, and the TGI (786-0 renal) was 25.2 µM, the TGI (A549 NSCLC) was 38.8 µM and the TGI (ACHN renal) was 20.3 µM. The TGI (BT-549 breast) was 89.8 µM, the TGI (CAKI-1 renal) was 31.9 µM and the TGI (CCRF-CEM leukemia) was 31.1 µM. For the same compound, the TGI (COLO 205 colon) was 26.8 µM, the TGI (DU-145 prostate) was 30.4 µM and the TGI (EKVX NSCLC) was 52.1 µM. For the same compound, the TGI (HCT-116 colon) was 25.8 µM, the TGI (HCT-15 colon) was 9.94 µM and the TGI (HL-60(TB) leukemia) was 55.2 µM. It also gave a TGI (HOP-62 NSCLC) of 29.4 µM, a TGI (HOP-92 NSCLC) of 35.2 µM and a TGI (HS 578T breast) of 28.3 µM. The TGI (HT29 colon) was 35.9 µM, the TGI (IGROV1 ovarian) was 12.3 µM and the TGI (K-562 leukemia) was > 100 µM. It also gave a TGI (KM12 colon) of 33.3 µM, a TGI (LOX IMVI melanoma) of 31.1 µM and a TGI (M14 melanoma) of 27.8 µM. For the same compound, the TGI (MALME-3M melanoma) was 65.5 µM, the TGI (MCF7 breast) was 29.2 µM and the TGI (MDA-MB-231 breast) was 34.4 µM. The TGI (MDA-MB-435) was 34.8 µM, the TGI (MDA-N) was 34.9 µM and the TGI (MOLT-4 leukemia) was > 100 µM. For the same compound, the TGI (NCI-H226 lung) was 56.1 µM, the TGI (NCI-H23 lung) was 32.2 µM and the TGI (NCI-H460 lung) was 39.7 µM. The TGI (NCI-H522 lung) was 28.5 µM, the TGI (NCI/ADR-RES ovarian) was 53.3 µM and the TGI (OVCAR-3 ovarian) was 35.5 µM. The TGI (OVCAR-4 ovarian) was 34.2 µM, the TGI (OVCAR-5 ovarian) was 35.9 µM and the TGI (OVCAR-8 ovarian) was 44.4 µM. It also gave a TGI (PC-3 prostate) of 37.4 µM, a TGI (RPMI-8226 leukemia) of 26.3 µM and a TGI (RXF 393 renal) of 34.6 µM. It also gave a TGI (SF-268 CNS) of 64.7 µM, a TGI (SF-295 CNS) of 54.1 µM and a TGI (SF-539 CNS) of 26.4 µM. The TGI (SK-MEL-5 melanoma) was 35.6 µM, the TGI (SK-OV-3 ovarian) was 65.5 µM and the TGI (SN12C renal) was 27 µM. It also gave a TGI (SNB-19 CNS) of 19.7 µM, a TGI (SR leukemia) of 73.3 µM and a TGI (SW-620 colon) of 32.5 µM. It also gave a TGI (T-47D breast) of 28.3 µM, a TGI (TK-10 renal) of 61.8 µM and a TGI (U251 CNS) of 32.4 µM. It also gave a TGI (UACC-257 melanoma) of 54.9 µM, a TGI (UACC-62 melanoma) of 25.2 µM and a TGI (UO-31 renal) of 23.6 µM.
In the case of Cc1nn(C(=O)c2ccncc2)c2c1C(c1cccc([N+](=O)[O-])c1)SC(N)=N2 (centres undefined), the TGI (786-0 renal) is reported as > 10 µM, the TGI (A549 NSCLC) is reported as > 10 µM and the TGI (ACHN renal) is reported as > 10 µM. For the same compound, the TGI (BT-549 breast) was > 10 µM, the TGI (CAKI-1 renal) was > 10 µM and the TGI (CCRF-CEM leukemia) was > 10 µM. The TGI (COLO 205 colon) was > 10 µM, the TGI (DU-145 prostate) was > 10 µM and the TGI (EKVX NSCLC) was > 10 µM. The TGI (HCC-2998 colon) was > 10 µM, the TGI (HCT-116 colon) was > 10 µM and the TGI (HCT-15 colon) was > 10 µM. The TGI (HL-60(TB) leukemia) was > 10 µM, the TGI (HOP-62 NSCLC) was > 10 µM and the TGI (HOP-92 NSCLC) was > 10 µM. For the same compound, the TGI (HS 578T breast) was > 10 µM, the TGI (HT29 colon) was > 10 µM and the TGI (IGROV1 ovarian) was > 10 µM. The TGI (K-562 leukemia) was > 10 µM, the TGI (KM12 colon) was > 10 µM and the TGI (LOX IMVI melanoma) was > 10 µM. The TGI (M14 melanoma) was > 10 µM, the TGI (MALME-3M melanoma) was > 10 µM and the TGI (MCF7 breast) was > 10 µM. The TGI (MDA-MB-231 breast) was > 10 µM, the TGI (MDA-MB-435) was > 10 µM and the TGI (MDA-N) was > 10 µM. For the same compound, the TGI (MOLT-4 leukemia) was > 10 µM, the TGI (NCI-H226 lung) was > 10 µM and the TGI (NCI-H23 lung) was > 10 µM. The TGI (NCI-H460 lung) was > 10 µM, the TGI (NCI-H522 lung) was > 10 µM and the TGI (NCI/ADR-RES ovarian) was > 10 µM. For the same compound, the TGI (OVCAR-3 ovarian) was > 10 µM, the TGI (OVCAR-4 ovarian) was > 10 µM and the TGI (OVCAR-5 ovarian) was > 10 µM. The TGI (OVCAR-8 ovarian) was > 10 µM, the TGI (PC-3 prostate) was > 10 µM and the TGI (RPMI-8226 leukemia) was > 10 µM. For the same compound, the TGI (RXF 393 renal) was > 10 µM, the TGI (SF-268 CNS) was > 10 µM and the TGI (SF-295 CNS) was > 10 µM. The TGI (SF-539 CNS) was > 10 µM, the TGI (SK-MEL-2 melanoma) was > 10 µM and the TGI (SK-MEL-28 melanoma) was > 10 µM. For the same compound, the TGI (SK-MEL-5 melanoma) was > 10 µM, the TGI (SK-OV-3 ovarian) was > 10 µM and the TGI (SN12C renal) was > 10 µM. The TGI (SNB-19 CNS) was > 10 µM, the TGI (SNB-75 CNS) was > 10 µM and the TGI (SR leukemia) was > 10 µM. For the same compound, the TGI (SW-620 colon) was > 10 µM, the TGI (T-47D breast) was > 10 µM and the TGI (TK-10 renal) was > 10 µM. The TGI (U251 CNS) was > 10 µM, the TGI (UACC-257 melanoma) was > 10 µM and the TGI (UACC-62 melanoma) was > 10 µM.
With S=C(N/N=C\c1ccccn1)N(Cc1ccccn1)Cc1ccccn1 the TGI (786-0 renal) was 13.3 µM, the TGI (A549 NSCLC) was > 42 µM and the TGI (ACHN renal) was 5.13 µM. The TGI (BT-549 breast) was 12.9 µM, the TGI (CAKI-1 renal) was 14.6 µM and the TGI (CCRF-CEM leukemia) was > 100 µM. It also gave a TGI (COLO 205 colon) of 23.9 µM, a TGI (DU-145 prostate) of 19.7 µM and a TGI (EKVX NSCLC) of 17.2 µM. The TGI (HCC-2998 colon) was > 43.1 µM, the TGI (HCT-116 colon) was 16.5 µM and the TGI (HCT-15 colon) was > 43.2 µM. The TGI (HL-60(TB) leukemia) was > 100 µM, the TGI (HOP-62 NSCLC) was 41.7 µM and the TGI (HOP-92 NSCLC) was 11.4 µM. The TGI (HS 578T breast) was > 74.4 µM, the TGI (HT29 colon) was 16.2 µM and the TGI (IGROV1 ovarian) was 11.2 µM. The TGI (K-562 leukemia) was > 100 µM, the TGI (KM12 colon) was 23.5 µM and the TGI (LOX IMVI melanoma) was 12.6 µM. For the same compound, the TGI (M14 melanoma) was 43.7 µM, the TGI (MALME-3M melanoma) was 16.9 µM and the TGI (MCF7 breast) was > 100 µM. The TGI (MDA-MB-231 breast) was > 49 µM, the TGI (MDA-MB-435) was 41.8 µM and the TGI (MDA-N) was 47.9 µM. The TGI (MOLT-4 leukemia) was 19.4 µM, the TGI (NCI-H226 lung) was 1.78 µM and the TGI (NCI-H23 lung) was 14.5 µM. The TGI (NCI-H460 lung) was > 44 µM, the TGI (NCI-H522 lung) was 33.1 µM and the TGI (NCI/ADR-RES ovarian) was 5.2 µM. For the same compound, the TGI (OVCAR-3 ovarian) was > 48.7 µM, the TGI (OVCAR-4 ovarian) was 18.7 µM and the TGI (OVCAR-5 ovarian) was 63.9 µM. For the same compound, the TGI (OVCAR-8 ovarian) was 12.7 µM, the TGI (PC-3 prostate) was 32.9 µM and the TGI (RPMI-8226 leukemia) was > 38.8 µM. It also gave a TGI (RXF 393 renal) of 32.2 µM, a TGI (SF-268 CNS) of 30.9 µM and a TGI (SF-295 CNS) of 16.3 µM. For the same compound, the TGI (SF-539 CNS) was > 100 µM, the TGI (SK-MEL-2 melanoma) was 37.9 µM and the TGI (SK-MEL-28 melanoma) was > 49.7 µM. The TGI (SK-MEL-5 melanoma) was 16.8 µM, the TGI (SK-OV-3 ovarian) was 17.9 µM and the TGI (SN12C renal) was 25.7 µM. The TGI (SNB-19 CNS) was 21.9 µM, the TGI (SNB-75 CNS) was 20.2 µM and the TGI (SR leukemia) was > 39 µM. For the same compound, the TGI (SW-620 colon) was > 51.3 µM, the TGI (T-47D breast) was > 40.4 µM and the TGI (TK-10 renal) was 17.6 µM. For the same compound, the TGI (U251 CNS) was > 40 µM, the TGI (UACC-257 melanoma) was 39.5 µM and the TGI (UACC-62 melanoma) was > 23.1 µM. It also gave a TGI (UO-31 renal) of 7.87 µM.
